We go through nine compounds from patent publication US7576217B2, “Quinolines as allosteric enhancers of the GABAB receptors” (Hoffman-La Roche Inc., priority 2004, dated 2009).

Read-outs that look alike come from different tables or passages of the source.

A word on the Emax: it is the size of the effect at its maximum, as opposed to the concentration needed. Usually EC50 stands for the concentration giving half of the maximal effect.

Series [1] has as its target T1, human GABABR1aR2a (Homo sapiens, UniProt O75899+Q9UBS5).
T1 construct: expressed in transfected cells
Nature of the series: Intracellular Ca2+ mobilization assay in CHO-GABABR1aR2a-Gα16 cell (FLIPR). It counts as cell-based. As to conditions: for GABA shift Log [EC50(GABA + 10 μM cp)/EC50(GABA alone)]: GABA 0.0003-30 μM with and without 10 μM enhancer; for Emax: enhancer 0.001-30 μM in presence of 10 nM GABA (EC10), applied 15 min before GABA, read-out: Emax (%) at 10 nM GABA alone = 0% 10 μM GABA alone = 100%; for EC50: enhancer concentration-response in presence of 10 nM GABA (EC10). As for the experimental part:
Intracellular Ca^2+ Mobilization Assay
The Chinese Hamster Ovary (CHO) cells stably expressing human GABABR1aR2a and Gα16 were seeded at 5×10^4 cells/well in the poly-D-lysine treated, 96-well, black/clear-bottomed plates (BD Biosciences, Palo Alto, Calif.). 24 h later, the cells were loaded for 90 min at 37° C. with 4 μM Flou-4 acetoxymethyl ester (Catalog No. F-14202, Molecular Probes, Eugene, Oreg.) in loading buffer (1×HBSS, 20 mM HEPES, 2.5 mM Probenecid). Hanks' Balanced Salt Solution (HBSS) (10×) (catalog No. 14065-049) and HEPES (1M) (catalog No. 15630-056) were purchased from Invitrogen, Carlsbad, Calif. Probenecid (250 mM) (catalog No. P8761) was from Sigma, Buchs, Switzerland. The cells were washed five times with loading buffer to remove excess dye and intracellular calcium mobilization, [Ca^2+]i were measured using a Fluorometric Imaging Plate Reader (FLIPR, Molecular Devices, Menlo Park, Calif.) as described previously (Porter et al., Br. J. Pharmacol., 128, 13-20, 1999). The enhancers were applied 15 min before the application of the GABA. For GABA shift assay, concentration-response curves of GABA (0.0003-30 μM) were determined in the absence and presence of […] enhancer. The GABA-shift is defined as Log [EC50 (GABA+10 μM enhancer)/EC50 (GABA alone)]. The % maximum enhancing effect (% Emax) and potency (EC50 value) of each enhancer was determined from concentration-response curve of the enhancer (0.001-30 μM) in the presence of 10 nM GABA (EC10). Responses were measured as peak increase in fluorescence minus basal, normalized to the maximal stimulatory effect induced by 10 μM GABA alone (considered 100%) and 10 nM GABA alone (considered 0%). The data were fitted with the equation Y=100+(Max−100)/(1+(EC50/[drug])^n) where Max is the maximum effect, EC50 the concentration eliciting a half-maximum effect and n the Hill slope.
For orientation: Calcium flux is commonly read through the fluorescence of an indicator in the cells.

For series [2] the following is noted: cited from earlier work.
For series [3] the following is noted: PO, cited from earlier work.
For series [4] the following is noted: rats; cited from earlier work.

T1 sequence (Q9UBS5 15-961 limits assumed): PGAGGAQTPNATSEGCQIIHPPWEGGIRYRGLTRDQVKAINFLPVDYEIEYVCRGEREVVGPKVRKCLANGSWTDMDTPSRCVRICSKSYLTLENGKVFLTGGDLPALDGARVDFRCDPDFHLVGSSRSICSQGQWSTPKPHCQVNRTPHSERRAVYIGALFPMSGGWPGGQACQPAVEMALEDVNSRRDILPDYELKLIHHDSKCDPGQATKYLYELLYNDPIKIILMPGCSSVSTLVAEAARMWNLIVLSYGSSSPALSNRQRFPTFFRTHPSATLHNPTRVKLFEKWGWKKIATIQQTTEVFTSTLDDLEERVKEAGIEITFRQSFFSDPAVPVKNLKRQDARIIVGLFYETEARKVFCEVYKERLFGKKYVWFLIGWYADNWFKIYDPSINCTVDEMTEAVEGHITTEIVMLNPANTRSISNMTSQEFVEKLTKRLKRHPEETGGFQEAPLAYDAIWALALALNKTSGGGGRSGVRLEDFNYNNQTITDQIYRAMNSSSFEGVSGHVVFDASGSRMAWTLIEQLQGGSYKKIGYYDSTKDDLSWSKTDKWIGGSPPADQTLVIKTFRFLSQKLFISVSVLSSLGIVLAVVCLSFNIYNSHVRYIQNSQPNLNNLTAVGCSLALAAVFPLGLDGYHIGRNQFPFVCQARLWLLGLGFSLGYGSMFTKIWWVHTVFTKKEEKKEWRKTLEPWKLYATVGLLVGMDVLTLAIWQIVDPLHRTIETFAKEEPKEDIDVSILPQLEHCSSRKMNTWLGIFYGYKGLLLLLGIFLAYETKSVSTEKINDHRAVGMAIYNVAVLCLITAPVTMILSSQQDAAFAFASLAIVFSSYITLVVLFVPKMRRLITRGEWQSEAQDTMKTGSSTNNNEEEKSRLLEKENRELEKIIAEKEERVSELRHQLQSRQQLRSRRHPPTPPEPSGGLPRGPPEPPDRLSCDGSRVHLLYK
T1 sequence (O75899 42-941): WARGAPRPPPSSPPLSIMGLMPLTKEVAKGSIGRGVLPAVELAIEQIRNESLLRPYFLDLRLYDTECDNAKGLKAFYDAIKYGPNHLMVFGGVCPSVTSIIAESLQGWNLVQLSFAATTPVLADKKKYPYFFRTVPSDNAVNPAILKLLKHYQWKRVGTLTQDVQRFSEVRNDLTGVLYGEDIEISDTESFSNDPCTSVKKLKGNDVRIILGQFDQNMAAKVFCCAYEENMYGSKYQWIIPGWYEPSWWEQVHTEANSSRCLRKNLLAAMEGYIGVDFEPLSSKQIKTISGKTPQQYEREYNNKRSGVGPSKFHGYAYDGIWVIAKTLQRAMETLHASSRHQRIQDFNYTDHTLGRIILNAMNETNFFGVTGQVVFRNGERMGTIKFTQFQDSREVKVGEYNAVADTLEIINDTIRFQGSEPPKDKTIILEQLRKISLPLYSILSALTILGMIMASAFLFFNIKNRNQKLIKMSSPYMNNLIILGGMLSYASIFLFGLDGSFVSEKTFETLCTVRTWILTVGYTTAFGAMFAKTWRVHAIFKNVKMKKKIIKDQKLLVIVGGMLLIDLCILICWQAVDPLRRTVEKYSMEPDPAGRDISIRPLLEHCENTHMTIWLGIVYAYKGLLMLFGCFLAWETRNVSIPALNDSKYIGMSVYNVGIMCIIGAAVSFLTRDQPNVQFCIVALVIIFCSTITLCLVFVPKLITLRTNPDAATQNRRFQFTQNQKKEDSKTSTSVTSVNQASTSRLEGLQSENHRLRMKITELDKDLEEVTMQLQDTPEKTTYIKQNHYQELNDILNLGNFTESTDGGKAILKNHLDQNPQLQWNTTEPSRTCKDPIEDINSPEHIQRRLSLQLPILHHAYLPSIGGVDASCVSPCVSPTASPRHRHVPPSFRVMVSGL

On to `Cc1nc2ccc(Br)cc2c(-c2ccccc2)c1C(=O)C(F)(F)F` [Example 3, 1-(6-Bromo-2-methyl-4-phenyl-quinolin-3-yl)-2,2,2-trifluoro-ethanone], for which, in series [1], the “GABA shift Log [EC50(GABA + 10 μM cp)/EC50(GABA alone)]” value (“GABA shift Log” below) is on record as −1.20, the Emax stood at 124% and the EC50 amounted to 0.8 µM.
Consider `Cc1nc2cc3c(cc2c(-c2ccccc2)c1C(=O)C(F)(F)F)OC(F)(F)O3` [Example 19, 1-(2,2-Difluoro-6-methyl-8-phenyl-[1,3]dioxolo[4,5-g]quinolin-7-yl)-2,2,2-trifluoro-ethanone], for which, in series [1], the “GABA shift Log” value was −0.70, the Emax turned out to be 63% and the EC50 is 0.9 µM.
The matching figures for `CC(=O)c1c(C)nc2ccc(OC(F)(F)F)cc2c1-c1cccc(Cl)c1` [Example 15, 1-[4-(3-Chloro-phenyl)-2-methyl-6-trifluoromethoxy-quinolin-3-yl]-ethanone]: −1.15, 67% and 1.6 µM.
In the case of `Cc1nc2ccc(Br)cc2c(-c2ccc(F)cc2)c1C(=O)C1CC1` [Example 56, [6-Bromo-4-(4-fluoro-phenyl)-2-methyl-quinolin-3-yl]-cyclopropyl-methanone], in series [1], the “GABA shift Log” value is listed as −0.90, the Emax stood at 58% and the EC50 was 2.2 µM.
For `CSc1nc(NC2CCCC2)c([N+](=O)[O-])c(NC2CCCC2)n1` [GS39783, N,N_-dicyclopentyl-2-methylsulfanyl-5-nitro-pyrimidine-4,6-diamine], the “tolerance after chronic treatment” value in series [2] (21 days, 10 mg/kg, P.O., once daily) was “No tolerance”. Also, the anxiolytic-like effects entry in series [2] (elevated plus maze (rat), elevated zero maze (mice and rats), stress-induced hyperthermia (mice)) is recorded as “exhibited anxiolytic-like effects”. The “effect on spontaneous locomotor activity, rotarod, body temperature and traction test” value in series [3] (0.1-200 mg/kg) was “had no effect”. In addition, in series [4], the decreasing cocaine self-administration entry is on record as “effective”.
As to `NCC(CC(=O)O)c1ccc(Cl)cc1` (stereo not drawn) [Baclofen, β-chlorophenyl GABA], the “effect on spontaneous locomotor activity, rotarod, body temperature and traction test” value in series [3] (2.5-15 mg/kg) was “showed these side effects”.
As for `Cc1nc2ccc(N3CCCCC3)cc2c(-c2ccc(F)cc2)c1C(=O)C(F)(F)F` [Example 33, 2,2,2-Trifluoro-1-[4-(4-fluoro-phenyl)-2-methyl-6-piperidin-1-yl-quinolin-3-yl]-ethanone], in series [1], the “GABA shift Log” value was −0.90, the Emax turned out to be 62% and the EC50 was determined as 0.33 µM.
The matching figures for `Cc1nc2ccc(OC(F)(F)F)cc2c(-c2ccccc2)c1C(=O)C(F)(F)F` [Example 11, 2,2,2-Trifluoro-1-(2-methyl-4-phenyl-6-trifluoromethoxy-quinolin-3-yl)-ethanone]: −1.00, 65% and 0.8 µM.
`CC(C)(CO)Cc1cc(C(C)(C)C)c(O)c(C(C)(C)C)c1` [CGP7930, 2,6-di-tert-butyl-4-(3-hydroxy-2,2-dimethyl-propyl)-phenol]: the decreasing cocaine self-administration entry in series [4] is “effective”.
